The values below come from US10100043B2, “Substituted aldehyde compounds and methods for their use in increasing tissue oxygenation” (Global Blood Therapeutics, Inc., priority 2013, dated 2018).

Experiment [1] deals with whole blood from homozygous sickle cell patients. As to the kind of experiment: Whole blood assay: oxygen equilibrium curves of whole blood, HEMOX analyzer. The following applies: compounds tested at 1000 μM; hematocrit 20%, 1 hour at 37° C. Format: cell-based, human. On the procedure:
Oxygen Equilibrium Curves (OEC) of whole blood before and after treatment with different concentrations of substituted benzaldehyde compounds were performed as follows using a HEMOX analyzer (TCS Scientific, New Hope, Pa.). Blood samples from homozygous sickle cell patients were obtained though the Hemoglobinopathy Center at Children's Hospital Oakland Research Institute (CHORI) with Institutional Review Board approval. The hematocrit was adjusted to 20% using autologous plasma and the blood samples were incubated for 1 hour at 37° C. in absence or presence of compounds. 100 μl of these samples were added to 5 mL of Hemox buffer (30 mM TES, 130 mM NaCl, 5 mM KCl, pH=7.4) at 37° C. and then transferred to the Hemox sample chamber. The samples were saturated with oxygen by flushing with compressed air for 10 minutes. The samples were then flushed with pure nitrogen and the respective absorbances of oxy- and deoxy-Hb are recorded as a function of the solution pO2. The oxygen equilibrium data were then fitted to the Hill Model to obtain values for p50. The deoxygenation curves for both whole blood alone (control) and whole blood in the presence of the compound were collected with the TCS software.
Table 5 below lists the delta p50% values where + indicates a delta p50% of between 0 and 29, ++ indicates a delta p50% of between 30 and 50, and +++ indicates a delta p50% of 50 or greater. The compounds in Table 2 were tested at 1000 μM.

For experiment [2], the target named is T1, purified Hemoglobin S (HbS) (Homo sapiens, UniProt P68871+P69905, E7V).
T1 construct: HbS was purified by a modified procedure; from tissue; host or cells: blood of homozygous sickle cell patients (CHORI)
As to the kind of experiment: Modulation of hemoglobin oxygen affinity: oxygen equilibrium curves (OEC) in purified HbS, HEMOX analyzer. The experiment is classed as biochemical. The following applies: compounds tested at 30 μM; 25 μM purified HbS, 45 min at 37° C., pH 7.4. On the procedure: Oxygen equilibrium curves (OEC) in purified Hemoglobin S (HbS) were measured by the change in p50, the partial pressure of oxygen at which the heme binding sites in the HbS sample are 50% saturated with oxygen. HbS was purified by a modified procedure (Antonini and Brunori, 1971; Hemoglobin and Myoglobin in their Reactions with Ligands; North Holland Publishing Company; Amsterdam, London) from blood obtained from homozygous sickle cell patients though the Hemoglobinopathy Center at Children's Hospital Oakland Research Institute (CHORI) with Institutional Review Board approval. Oxygen equilibrium curves were carried out with a HEMOX analyzer, (TCS Scientific, New Hope, Pa.). Five hundred μL of 250 μM purified HbS were diluted into 4.5 mL of HEMOX buffer (30 mM TES, 130 mM NaCl, 5 mM KCl, pH=7.4) resulting in a final hemoglobin concentration of 25 μM. The compounds were added at the final desired concentrations. The mixture was incubated for 45 min at 37° C. and then transferred to the Hemox sample chamber. The samples were saturated with oxygen by flushing with compressed air for 10 minutes. The samples were then flushed with pure nitrogen and the absorbance of deoxy-Hb was recorded as a function of the solution pO2. The oxygen equilibrium data was then fit to the Hill Model to obtain values for p50. The deoxygenation curves for both HbS alone (control) and HbS in the presence of compound were collected with the TCS software. The p50 for purified Hbs was typically 13.8±1.6. Delta p50 values were obtained from the p50 value for control minus the p50 value for HbS treated with compound divided by the p50 value for the control.
The compounds of Table 1 that were where tested in the assay above were all found to have positive delta p50 values. Delta p50% is calculated from [[p50(HbS)-p50(HbS treated with compound)]/p50(HbS)]×100. Table 2 below lists the delta p50% values where + indicates a delta p50% of between 0 and 29 and ++ indicates a delta p50% of 30 or greater. Unless noted otherwise, the compounds in Table 2 were tested at 30 μM.

Experiment [3] concerns the target T2, purified HBS (Homo sapiens, UniProt P68871+P69905, E7V).
T2 construct: HbS is purified by the CRO VIRUSYS, from blood obtained from homozygous sickle cell patients; tissue VIRUSYS (CRO that did the purification); host or cells: blood of homozygous sickle cell patients (CHORI)
As to the kind of experiment: HbS polymerization assay (delay time, absorbance at 700 nm). The following applies: percent delay (% DT) of polymerization vs HBS alone; 50 μM purified HBS, 1.8 M potassium phosphate pH 7.4. The experiment is classed as biochemical. On the procedure:
Polymerization assays are carried out in vitro using purified HBS exchanged into 1.8 M potassium phosphate buffer at pH 7.4. Using a slightly modified protocol (Antonini and Brunori, 1971), HbS is purified by the CRO VIRUSYS, from blood obtained from homozygous sickle cell patients through the Hemoglobinopathy Center at Children's Hospital Oakland Research Institute (CHORI) with Institutional Review Board approval. Compounds are prepared in 100% DMSO and a desired amount is added to 50 μM of purified HBS at a final DMSO concentration of 0.3%. Final potassium phosphate concentration is adjusted to 1.8 M using a combination of 2.5 M potassium phosphate stock solution and water at pH 7.4. The reaction mixture is incubated for an hour at 37° C. and then transferred into a 24-well plate for deoxygenation in a glove box containing 99.5% nitrogen and 0.5% oxygen. The 24-well plate is not covered and incubated at 4° C. on a plate cooler inside the glove box for one and a half hours. Fifty μL of the reaction mixture is transferred into a 96-well plate and the absorbance at 700 nm is measured every minute for one hour at 37° C. in a plate reader located inside the glove box. A plot of the absorbance against time is fitted using a Boltzman sigmoidal fit and the delay time (from zero to time at half Vmax) is measured. To compare and rank compounds, delay times are expressed as percent delay (% DT), which is defined as the difference in delay times for HBS/compound and HBS alone multiplied by 100 and divided by the delay time for HBS alone.
Compounds listed below have been tested in the polymerization assay. Activity ranges are defined by the number of dagger (†) symbols indicated. † denotes activity ≥40% but ≤80%; †† denotes activity >80% but ≤120%; ††† denotes activity >120% but ≤140%; †††† denotes activity >160%.

Experiment [4] concerns the target T3, HbS/A (Homo sapiens, UniProt P68871+P69905, E7V).
T3 construct: A mixture of HbS/A was purified from blood; from tissue; host or cells: blood of homozygous sickle cell patients (CHORI)
As to the kind of experiment: Relaxed-to-tense transition assay (R/T assay). Format: biochemical. To be noted: compounds tested at 9 μM; 3 μM HbS/A, 30 μM DPG, 1 hr at 37° C., deoxygenation with N2. The procedure:
A relaxed-to-tense transition assay (“R/T assay”) was used to determine the ability of substituted benzaldehyde compounds to maintain the high-oxygen affinity relaxed (R) state of hemoglobin under deoxygenated conditions. This ability can be expressed as a “delta R” value (i.e., the change in the time-period of the R state after hemoglobin is treated with a compound, as compared to the period without treatment with the compound). Delta R is the % R to remaining after the compounds treatment compared with no treatment (e.g. if R % without treatment is 8% while with treatment with a target compound is 48% R at 30 μM, then % R is 40% for that compound.
A mixture of HbS/A was purified from blood obtained from homozygous sickle cell patients though the Hemoglobinopathy Center at Children's Hospital Oakland Research Institute (CHORI) with Institutional Review Board approval. HbS/A (at a final concentration of 3 μM) was incubated for 1 hr at 37° C. in presence or absence of compounds in […] potassium phosphate buffer, pH=7.4 and 30 μM 2, 3 diphosphoglycerate (DPG) in 96 well plates in a final volume of 160 μl. Compounds were added at different concentrations (3 μM to 100 μM final concentrations). Plates were covered with a Mylar film. After incubation was completed the Mylar cover was removed and the plates were placed in a Spectrostar Nano plate reader previously heated at 37° C. Five minutes later, N2 (flow rate=20 L/min) was flowed through the spectrophotometer. Spectroscopic measurements (300 nm to 700 nm) were taken every 5 min for 2 hours. Data analysis was performed by using linear regression from the data retrieved for all wavelengths.
Table 4 below lists the delta R values where + indicates a delta R of between 0 and 30, ++ indicates a delta R of between 30 and 50, and +++ indicates a delta R of 50 or greater. Unless noted otherwise, the compounds in Table 2 were tested at 9 μM.

Experiment [5] concerns Transgenic mice producing human HbS. To be noted: extreme hypoxia (5% oxygen), cited from earlier work.

For the compound `O=Cc1c(O)cccc1OC[C@H]1CCC[C@@H](C(=O)O)C1` (relative stereo) [Compound 5, cis-3-((2-formyl-3-hydroxyphenoxy)methyl)cyclohexanecarboxylic acid], in experiment [1], the “delta p50%” value was “++ (++ indicates a delta p50% of between 30 and 50)”. In addition, the “delta p50” value in experiment [2] is “++ (++ indicates a delta p50% of 30 or greater)”. The “% delta Delay” value in experiment [3] is “†††† (†††† denotes activity >160%)”. In addition, the “delta R (%)” value in experiment [4] is “+++ (+++ indicates a delta R of 50 or greater)”.
Regarding `COC(=O)[C@H]1CC[C@@H](COc2cccc(O)c2C=O)CC1` [Compound 1, cis-methyl 4-((2-formyl-3-hydroxyphenoxy)methyl)cyclohexanecarboxylate], the “delta p50%” value in experiment [1] was “+ (+ indicates a delta p50% of between 0 and 29)”. In addition, in experiment [2], the “delta p50” value is listed as “++ (++ indicates a delta p50% of 30 or greater)”. Moreover, the “% delta Delay” value in experiment [3] was “†† (†† denotes activity >80% but ≤120%)”. In addition, the “delta R (%)” value in experiment [4] is “+++ (+++ indicates a delta R of 50 or greater)”.
`O=Cc1c(O)cccc1OC[C@H]1CC[C@@H](C(=O)O)CC1` [Compound 2, cis-4-((2-formyl-3-hydroxyphenoxy)methyl)cyclohexanecarboxylic acid]: the “delta p50%” value in experiment [1] is “++ (++ indicates a delta p50% of between 30 and 50)”. Besides, the “delta p50” value in experiment [2] is “++ (++ indicates a delta p50% of 30 or greater)”. In addition, the “% delta Delay” value in experiment [3] is “†††† (†††† denotes activity >160%)”. The “delta R (%)” value in experiment [4] was “++ (++ indicates a delta R of between 30 and 50)”.
As to `COC(=O)[C@H]1CC[C@H](COc2cccc(O)c2C=O)CC1` [Compound 4, trans-methyl 4-((2-formyl-3-hydroxyphenoxy)methyl)cyclohexanecarboxylate], in experiment [1], the “delta p50%” value was “+ (+ indicates a delta p50% of between 0 and 29)”. Also, the “delta p50” value in experiment [2] is given as “++ (++ indicates a delta p50% of 30 or greater)”. Further, the “% delta Delay” value in experiment [3] is on record as “††† (††† denotes activity >120% but ≤140%)”. In addition, in experiment [4], the “delta R (%)” value is reported as “+++ (+++ indicates a delta R of 50 or greater)”.
In the case of `O=Cc1ccc(CO)o1` [Compound 5HMF, 5-hydroxymethyl-2-furfuraldehyde], the “hypoxia-induced sickled red blood cells” value in experiment [5] (compared to non-treated mice) is “reduced amounts of hypoxia-induced sickled red blood cells”. The survival times entry in experiment [5] is reported as “significantly improved survival times”.
Regarding `O=Cc1c(O)cccc1OC[C@H]1CC[C@H](C(=O)O)CC1` [Compound 6, trans-4-((2-formyl-3-hydroxyphenoxy)methyl)cyclohexanecarboxylic acid], the “delta p50%” value in experiment [1] is “+ (+ indicates a delta p50% of between 0 and 29)”. In addition, the “delta p50” value in experiment [2] is recorded as “++ (++ indicates a delta p50% of 30 or greater)”. Further, the “% delta Delay” value in experiment [3] is on record as “†† (†† denotes activity >80% but ≤120%)”.
Turning to `COC(=O)C1CCCC(COc2cccc(O)c2C=O)C1` (stereo not shown) [Compound 7, methyl 3-((2-formyl-3-hydroxyphenoxy)methyl)cyclohexanecarboxylate], in experiment [1], the “delta p50%” value was “+ (+ indicates a delta p50% of between 0 and 29)”. In addition, in experiment [2], the “delta p50” value was “++ (++ indicates a delta p50% of 30 or greater)”. In addition, the “% delta Delay” value in experiment [3] is “†† (†† denotes activity >80% but ≤120%)”.
Regarding `COc1cccc(OC[C@H]2CC[C@H](C(=O)OC)CC2)c1C=O` [Compound 8, trans-methyl 4-((2-formyl-3-methoxyphenoxy)methyl)cyclohexanecarboxylate], the “delta p50” value in experiment [2] is “+ (+ indicates a delta p50% of between 0 and 29)”. For the same compound, in experiment [3], the “% delta Delay” value is “† († denotes activity ≥40% but ≤80%)”. The “delta R (%)” value in experiment [4] is “+ (+ indicates a delta R of between 0 and 30)”.
For `COC(=O)C1CCCC(COc2cccc(O)c2C=O)C1` (stereo not shown) [Compound 9, methyl 3-((2-formyl-3-hydroxyphenoxy)methyl)cyclohexanecarboxylate], the “delta p50” value in experiment [2] is “+ (+ indicates a delta p50% of between 0 and 29)”. Moreover, the “delta R (%)” value in experiment [4] is recorded as “+++ (+++ indicates a delta R of 50 or greater)”.
For `O=Cc1c(O)cccc1OCC1=C(c2ccccc2)CCCC1` [Compound 10, 2-hydroxy-6-((3,4,5,6-tetrahydro-[1,1′-biphenyl]-2-yl)methoxy)benzaldehyde], the “delta p50%” value in experiment [1] was “++ (++ indicates a delta p50% of between 30 and 50)”. The “% delta Delay” value in experiment [3] was “†† (†† denotes activity >80% but ≤120%)”. In addition, the “delta R (%)” value in experiment [4] was “++ (++ indicates a delta R of between 30 and 50)”.
With `O=Cc1c(O)cccc1OCC1CCCCC1c1ccccc1` (stereo not shown) [Compound 11, 2-hydroxy-6-((2-phenylcyclohexyl)methoxy)benzaldehyde], in experiment [3], the “% delta Delay” value was “† († denotes activity ≥40% but ≤80%)”. For the same compound, the “delta R (%)” value in experiment [4] was “++ (++ indicates a delta R of between 30 and 50)”.
